Assay type in all cases: in vivo
The subject of test [1] is Diamond back moth (Plutella xylostella). Kind of test: Example B.8: Action on diamond back moth (Plutella xylostella), egg and larval mortality on insect diet in microtiter plates. The following applies: for egg and larval mortality: comparative experiment vs prior art compounds; for mortality at 800 ppm: Plutella xylostella, 120 h, egg and larval mortality after 5 days, read-out: mortality in comparison with untreated controls. How it is done: For evaluating control of diamond back moth (Plutella xylostella) the test unit consisted of 96-well-microtiter plates containing an insect diet and 15-25 P. xylostella eggs. The compounds or mixtures were formulated using a solution containing 75% water and 25% DMSO. Different concentrations of formulated compounds or mixtures were sprayed onto the insect diet at 5 μl, using a custom-built micro atomizer, at two replications. For experimental mixtures in these tests identical volumes of both mixing partners at the desired concentrations respectively, were mixed together. After application, microtiter plates were incubated at 28±1° C., 80±5% RH for 5 days. Egg and larval mortality was then visually assessed.

Test [2] concerns Southern armyworm (Spodoptera eridania), 2nd instar larvae. Kind of test: Example B.7: Action on southern armyworm (Spodoptera eridania), 2nd instar larvae on sprayed lima bean plants. Particulars: 96 h, 4 days after treatment, read-out: mortality in comparison with untreated controls. As to the method:
The active compounds were formulated by a Tecan liquid handler in 100% cyclohexanone as a 10,000-ppm solution supplied in tubes. The 10,000-ppm solution was serially diluted in 100% cyclohexanone to make interim solutions. These served as stock solutions for which final dilutions were made by the Tecan in 50% acetone:50% water (v/v) into 10 or 20 ml glass vials. A nonionic surfactant (Kinetic®) was included in the solution at a volume of 0.01% (v/v). The vials were then inserted into an automated electrostatic sprayer equipped with an atomizing nozzle for application to plants/insects.
Lima bean plants (variety Sieva) were grown 2 plants to a pot and selected for treatment at the 1st true leaf stage. Test solutions were sprayed onto the foliage by an automated electrostatic plant sprayer equipped with an atomizing spray nozzle. The plants were dried in the sprayer fume hood and then removed from the sprayer. Each pot was placed into perforated plastic bags with a zip closure. About 10 to 11 armyworm larvae were placed into the bag and the bags zipped closed. Test plants were maintained in a growth room at about 25° C. and about 20-40% relative humidity for 4 days, avoiding direct exposure to fluorescent light (24-hour photoperiod) to prevent trapping of heat inside the bags. Mortality and reduced feeding were assessed 4 days after treatment, compared to untreated control plants.

Test [3] deals with Orchid thrips (Dichromothrips corbetti). Kind of test: Example B.2: Action on orchid thrips (Dichromothrips corbetti), floral-immersion technique. The following applies: 72 hours after treatment, read-out: mortality in comparison with untreated controls. How it is done:
Dichromothrips corbetti adults used for bioassay were obtained from a colony maintained continuously under laboratory conditions. For testing purposes, the test compound is diluted in a 1:1 mixture of acetone:water (vol:vol), plus Kinetic® HV at a rate of 0.01% v/v.
Thrips potency of each compound was evaluated by using a floral-immersion technique. All petals of individual, intact orchid flowers were dipped into treatment solution and allowed to dryin Petri dishes. Treated petals were placed into individual re-sealable plastic along with about 20 adult thrips. All test arenas were held under continuous light and a temperature of about 28° C. for duration of the assay. After 3 days, the numbers of live thrips were counted on each petal. The percent mortality was recorded 72 hours after treatment.

For test [4], the system named is yellow fever mosquito (Aedes aegypti). Briefly: whole plant or invertebrate. The following applies: 48 h, larval mortality after 2 days, read-out: mortality in comparison with untreated controls. As to the method:
For evaluating control of yellow fever mosquito (Aedes aegypti) the test unit consisted of 96-well-microtiter plates containing 200 μl of tap water per well and 5-15 freshly hatched A. aegypti larvae.
The active compounds or mixtures were formulated using a solution containing 75% (v/v) water and 25% (v/v) DMSO. Different concentrations of formulated compounds or mixtures were sprayed onto the insect diet at 2.5 μl, using a custom-built micro atomizer, at two replications.
For experimental mixtures in these tests identical volumes of both mixing partners at the desired concentrations respectively, were mixed together.
After application, microtiter plates were incubated at 28 #1° C., 80 #5% RH for 2 days. Larval mortality was then visually assessed.

In test [5] the test system is Diamond back moth (Plutella xylostella). Kind of test: Example B.6: Action on diamond back moth (Plutella xylostella), cabbage leaf dip, 3rd instar larvae. Particulars: foliar, 72 hours after treatment, read-out: mortality in comparison with untreated controls. As to the method: The active compound is dissolved at the desired concentration in a mixture of 1:1 (v/v) distilled water: acetone. Surfactant (Kinetic® HV) is added at a rate of 0.01% (v/v). The test solution is prepared at the day of use.
Leaves of cabbage were dipped in test solution and air-dried. Treated leaves were placed in petri dishes lined with moist filter paper and inoculated with ten 3rd instar larvae. Mortality was recorded 72 hours after treatment. Feeding damages were also recorded using a scale of 0-100%.

The test system of test [6] is boll weevil (Anthonomus grandis). Briefly: Example B.3: Action on boll weevil (Anthonomus grandis), egg and larval mortality on insect diet. Particulars: 120 h, egg and larval mortality after 5 days, read-out: mortality in comparison with untreated controls. How it is done:
For evaluating control of boll weevil (Anthonomus grandis) the test unit consisted of 96-well-microtiter plates containing an insect diet and 5-10 A. grandis eggs.
The compounds were formulated using a solution containing 75% (v/v) water and 25% (v/v) DMSO. Different concentrations of formulated compounds were sprayed onto the insect diet at […], using a custom-built micro atomizer, at two replications.
After application, microtiter plates were incubated at about 25±1C and about 75±5% relative humidity for 5 days. Egg and larval mortality were then visually assessed.

Test [7] relates to tobacco budworm (Heliothis virescens). Kind of test: Example B.5: Action on tobacco budworm (Heliothis virescens), egg and larval mortality on insect diet. Particulars: 120 h, egg and larval mortality after 5 days, read-out: mortality in comparison with untreated controls. How it is done: For evaluating control of tobacco budworm (Heliothis virescens) the test unit consisted of 96-well-microtiter plates containing an insect diet and 15-25 H. virescens eggs.
The compounds were formulated using a solution containing 75% v/v water and 25% v/v DMSO. Different concentrations of formulated compounds were sprayed onto the insect diet at 10 μl, using a custom-built micro atomizer, at two replications.
After application, microtiter plates were incubated at about 28±1C and about 80±5% relative humidity for 5 days. Egg and larval mortality were then visually assessed.

Experimental findings from patent US20260055096A1, “AZOLE PESTICIDAL COMPOUNDS” (BASF SE, priority 2022, published 2026) are described below.

A value given as a limit tells only on which side of the number the result lay.

Regarding `CC(C)c1ccccc1N1C(=O)CS/C1=N\C(=O)Nc1ccc(-c2nc(Nc3ccc(OC(F)(F)F)cc3)n(C)n2)cc1` [EP3974414 I-001, reference compound], the “egg and larval mortality” value in test [1] (25 ppm) amounted to 0.
Take `CC(C)c1ccccc1N1C(=O)CS/C1=N\C(=O)Nc1ccc(-c2nc(Nc3cccc(OC(F)(F)F)c3)n(C)n2)cc1` [EP3974414 I-006, reference compound]: the “egg and larval mortality” value in test [1] (25 ppm) is 38; in test [1] (100 ppm) it was 0.
Regarding `Cc1ccc(C(C)C)c(N2C(=O)CS/C2=N\C(=O)Nc2ccc(-c3nn(C)c(NC(=O)c4ccc(C(F)(F)F)cc4)c3C)cc2)c1` [Example C-1, N-[5-[4-[[(Z)-[3-(2-isopropyl-5-methyl-phenyl)-4-oxo-thiazolidin-2-ylidene]carbamoyl]amino]phenyl]-2,4-dimethyl-pyrazol-3-yl]-4-(trifluoromethyl)benzamide], the mortality at 300 ppm in test [2], in test [3] and in test [5] was ≥ 75% each time. Besides, the mortality – broadly, the percentage killed – at 800 ppm in test [4] is ≥ 50%; in test [6], ≥ 75%; in test [7], ≥ 75%.
As for `CC(=O)OCS/C(=N\C(=O)Nc1ccc(-c2nn(C)c(NC(=O)c3ccc(C(F)(F)F)cc3)c2C)cc1)Nc1cc(C)ccc1C(C)C` [Example C-2, [(Z)-N′-[[4-[1,4-dimethyl-5-[[4-(trifluoromethyl)benzoyl]amino]pyrazol-3-yl]phenyl]carbamoyl]-N-(2-isopropyl-5-methyl-phenyl)carbamimidoyl]sulfanylmethyl acetate], the mortality at 300 ppm in test [2], in test [3] and in test [5] was ≥ 75% each time. In addition, the results for the mortality at 800 ppm in test [4], in test [6] and in test [7] were ≥ 50%, ≥ 75% and ≥ 75%, respectively.
Take `Cc1ccc(C(C)C)c(N2C(=O)CS/C2=N\C(=O)Nc2ccc(-c3nc(NC(=O)c4ccc(OC(F)(F)F)cc4)n(C)n3)cc2)c1` [Example C-5, N-[5-[4-[[(Z)-[3-(2-isopropyl-5-methyl-phenyl)-4-oxo-thiazolidin-2-ylidene]carbamoyl]amino]phenyl]-2-methyl-1,2,4-triazol-3-yl]-4-(trifluoromethoxy)benzamide]: the mortality at 300 ppm in test [2], in test [3] and in test [5] was ≥ 75% in each case. Also, the mortality at 800 ppm in test [6] and in test [7] was ≥ 75% in each case.
Regarding `Cc1ccc(C(C)C)c(N2C(=O)CS/C2=N\C(=O)N(C)c2ccc(-c3nn(C)c(NC(=O)c4ccc(OC(F)(F)F)cc4)c3C)cc2)c1` [Example C-112, N-[5-[4-[[(Z)-[3-(2-isopropyl-5-methyl-phenyl)-4-oxo-thiazolidin-2-ylidene]carbamoyl]-methyl-amino]phenyl]-2,4-dimethyl-pyrazol-3-yl]-4-(trifluoromethoxy)benzamide], the mortality at 800 ppm is ≥ 50% in test [4], ≥ 75% in test [6], ≥ 75% in test [1] and ≥ 75% in test [7].
On to `CC(C)c1ccccc1N1C(=O)CS/C1=N\C(=O)Nc1ccc(-c2nc(NC(=O)c3ccc(OC(F)(F)F)cc3)n(C)n2)cc1` [Example C-119], for which the mortality at 300 ppm in test [2] is ≥ 75%. Moreover, the mortality at 800 ppm in test [6] and in test [1] was ≥ 75% in each case. Besides, the “egg and larval mortality” value in test [1] (25 ppm) is on record as 75.
Consider `CC(C)c1ccccc1N1C(=O)CS/C1=N\C(=O)Nc1ccc(-c2nc(NC(=O)c3cccc(OC(F)(F)F)c3)n(C)n2)cc1` [Example C-126], for which the mortality at 300 ppm in test [2] is ≥ 75%. For the same compound, the mortality at 800 ppm was ≥ 50% in test [4], ≥ 75% in test [6], ≥ 75% in test [1] and ≥ 75% in test [7]. The entries for the “egg and larval mortality” value in test [1] (25 ppm) and in test [1] (100 ppm) were 75 and 100, respectively.
